This is an account of results in patent EP4635959A1, “NOVEL CRYSTALLINE FORM OF MAGNESIUM-SERINATE AND METHOD FOR PRODUCING SAME” (Astrogen, Inc., priority 2022, dated 2024).

One data set deals with primary mouse astrocytes. Description: Cytoprotective effect on oxidative stress induced by DMNQ (MTT cell viability). The note with it: for cell viability: pre-treated 6 hours with 1 mM, 2 mM, 5 mM, then DMNQ (30 µM) with compound for 16 hours, MTT, Fig. 8. The data set is classed as cell-based.
Data set [1] can be described thus: Stability test under harsh condition (qNMR, maleic acid standard). The data set is classed as physicochemical. As to the method:
In order to confirm the stability of the crystalline form of the present invention depending on conditions, a stability test was conducted under harsh conditions.
The magnesium-serinate crystalline form prepared in Example 2 was stored in a solid state at 70 °C and in an aqueous solution having a concentration of 0.5 mg/mL at 25 °C (60.0 % relative humidity) for 21 days, respectively, and then maleic acid was set as a standard substance, and the stability (measurement of content and related materials) was confirmed through qNMR analysis.
For the qNMR analysis method, analysis conditions were established by measuring the spin-lattice relaxation time T1 of the nuclide ^1H of magnesium-serinate on the sample obtained through the preliminary stress test. The T1 value was set at 4.708 seconds, and the measurement waiting time (d1: delay time) and measurement time (at: acquisition time) were set based on this value. The measurement waiting time (d1) was set to 30 seconds, and the measurement time (at) was set to being equal to or greater than the T1 value.
For the ^1H-NMR measurement for qNMR analysis, JEOL's JNM-ECX400I (400 MHz) NMR equipment was used, and spectral width (sw) was set at 6,000 Hz to sufficiently reflect the frequency range from 0 ppm to 10 ppm.

The nature of data set [2]: Evaluation of occurrence of polymorphic transition on storage (PXRD and DSC). The data set is classed as physicochemical. The settings on record: for DSC Endothermic Temperature: (dec.). The method, then:
In order to confirm whether the polymorphic transition of the magnesium-serinate crystalline form of the present invention occurs over time, PXRD and DSC analyses were performed in the initial state and after 4 weeks to confirm whether or not the polymorphic transition occurred.
Specifically, the crystalline form prepared in Example 2 was added into a polyethylene bag, placed in a stability chamber under conditions of a temperature of 40 °C and a relative humidity of 75 %, and stored for 4 weeks. PXRD and DSC analyses were performed in substantially the same manner as in Experimental Examples 2 and 3.

The nature of data set [3]: Moisture measurement (Karl Fischer method). The data set is classed as physicochemical. The note with it: 0.5 g of sample. The method, then:
(§1) Moisture and pH evaluations were performed in the same manner as in Experimental Example 7, and the heavy metal test and the content test were performed in the same manner as in Example 1.
(§2) The crystalline form of the present application prepared in Example 1 and the amorphous form of AST-011 (Comparative Example 2) were comparatively evaluated for the following test items by the following methods, and the results are shown in Table 7 below. - Appearance evaluation: Visual observation - Moisture measurement: According to the moisture measurement method (Karl Fischer method) of the general test method of the 12th edition of the Korean Pharmacopoeia, measured by adding 0.5 g of the sample into a moisture meter (Mettler Toledo, V10-S, Switzerland). - Infrared spectrum measurement method (IR): Measurement was made with FT-IR equipment (PerkinElmer, Spectrum 2, USA) according to the ATR measurement method of the general test method of the 12th revision of the Korean Pharmacopoeia. - pH measurement: 0.5 g of the sample was added into a 10 mL volumetric flask, and water was added to a final volume of 10 mL, and measurement was made with a pH meter (Mettler Toledo, FP-20 Switzerland). - XRD and DSC analyses: The analyses were performed in the same way as in Experimental Examples 2 and 3.

Data set [4] in a line: pH measurement of aqueous sample. The data set is classed as physicochemical. The settings on record: 0.5 g of sample in water, final volume 10 mL. As to the method: as §1, §2
Data set [5] in a line: Appearance evaluation on storage (visual observation). The data set is classed as physicochemical. The settings on record: storage for 3 months under the same conditions as AST-011.
Source text: as §2, with “3. […]” for “3.”

Where [6] appears, read: 25°C, Aqueous solution state (0.5 mg/mL, 60.0 % relative humidity), initial state.
Setting [7] is: 70°C, Solid state, initial state.
[8] abbreviates: initial vs after 4 weeks at 40 °C, relative humidity 75 %.

Procedure for primary mouse astrocytes: A 1-day-old mouse brain was removed, the olfactory bulb was removed, and the meninges were peeled off. After collecting the resultant in a 50 mL tube including HBSS (Hank's balanced salt solution) and centrifuging at 250 × g for 1 minute, the supernatant was removed. 2 mL of trypsin/EDTA (0.5 %), 8 mL of HBSS buffer, and 0.2 mL of DNase were mixed and reacted in a 37 °C constant temperature water bath for 30 minutes. After adding 18 mL of the culture medium and 2 mL of trypsin/EDTA thereto and pipetting 10 times, the resultant was filtered using a 40 µm cell strainer. Then, the supernatant was removed after centrifugation at 800 × g for 2 minutes. After adding 5 mL of the culture solution thereto, the number of cells was confirmed using a hemocytometer and the cells were cultured to obtain primary mouse astrocytes.
After inoculating cells (primary astrocytes, 1 × 10^5 cells) per well in a 96-well plate and culturing at 5 % CO2 and 37 °C for 24 hours to obtain a cell monolayer, the composition was diluted with a cell inoculation medium and the diluted composition each at a concentration of 0 mM, 1 mM, 2 mM, and 5 mM was inoculated at 100 µL/well, and then cultured in a 5 % CO2 and 37 °C incubator for 6 hours. […] Then, after removing the culture medium, 0.5 mg/mL of MTT solution was added to each well in an amount of 100 µL and reacted in a 5 % CO2 and 37 °C incubator for 2 hours. After completely removing the MTT solution and drying the culture plate, the formazan crystals formed in the cells were dissolved with DMSO, and the absorbance was measured at 590 nm with an ELISA plate reader to evaluate cell viability and drug efficacy.

As to `N[C@@H](CO)C(=O)O` [Comparative Example 1, L-serine], in the data set with primary mouse astrocytes, the cell viability result was “excellent”.

With `N[C@@H](CO)C(=O)[O-].N[C@@H](CO)C(=O)[O-].[Mg+2]` [Crystalline Form of Present Application, magnesium-di-(2S)-2-amino-3-hydroxypropanoate], the “Purity of magnesium-serinate (%)” value is given as 100.07% in data set [1] (25°C, Aqueous solution state (0.5 mg/mL, 60.0 % relative humidity), 9 days); 100.12% in data set [1] (setting [6]); 100.15% in data set [1] (70°C, Solid state, 9 days); 100.12% in data set [1] (setting [7]). The “Concentration of Total Related Materials (%)” value amounted to 0.00% in data set [1] (25°C, Aqueous solution state (0.5 mg/mL, 60.0 % relative humidity), 21 days); 0.00% in data set [1] (setting [6]); 0.00% in data set [1] (70°C, Solid state, 21 days); 0.00% in data set [1] (setting [7]). Moreover, the “DSC Endothermic Temperature” value in data set [2] (after 4 weeks at 40 °C and relative humidity of 75 %, polyethylene bag) was 282.5 °C (dec.); in data set [2] (initial), 283.0 °C (dec.). Further, the “Result of Comparative Analysis” value in data set [2] (setting [8]) is listed as “no occurrence of polymorphic transition”. In addition, the “Result of PXRD Analysis” value in data set [2] (setting [8]) is recorded as “same crystalline form”. The “Moisture Content” value in data set [3] came out at 0.2%; in data set [3] (listed as Example 2) it was 0.1%. For the same compound, the pH in data set [4] is reported as 10.3. Moreover, the “Appearance (stability)” value in data set [5] is listed as “Fig. 7(b) light gray or white powder (stability: no change after 3 months)”. In addition, in the data set on primary mouse astrocytes, the cell viability entry is given as “excellent”.

Consider `COC1=C(OC)C(=O)c2ccccc2C1=O` [DMNQ, 1,4-naphthoquinone], for which the cytotoxicity at 30 µM in the data set on primary mouse astrocytes (Mus musculus, Astrocyte, 16 h, read-out: cells killed by oxidative stress) is about 50%.
